From publication PMC8434392, “Harnessing the Anti-Nociceptive Potential of NK2 and NK3 Ligands in the Design of New Multifunctional μ/δ-Opioid Agonist–Neurokinin Antagonist Peptidomimetics” (Molecules, 2021)

Legend:
hMOR [1] = system: hMOR; parameters: method as in PMID 15094830, PMID 32365707; details: Figure 1B; read-out: EC50 (CHO-hMOR); cited from earlier work
hMOR [2] = biological target: hMOR; parameters: method as in PMID 15094830, PMID 32365707; details: Figure 1B; read-out: Ki (CHO-hMOR); cited from earlier work
NK3 receptor [3] = system: NK3 receptor; parameters: method as in PMID 17728699; details: Figure 1A; cited from earlier work
hNK3 = biological target: hNK3; parameters: method as in PMID 17728699; details: Figure 1A; cited from earlier work
NK3 receptor [4] = system: NK3 receptor; parameters: method as in PMID 17728699; details: Figure 1A; cited from earlier work; remark: listed apart in the source
human recombinant DOR = biological target: T1, human recombinant DOR (Homo sapiens, UniProt P41143); parameters: method as in PMID 23007594; details: data from reported literature ref 30, cited from earlier work
T1 construct: expressed in transfected cells; host or cells: CHO cells (gift from Prof. Girolamo Calo', Ferrara University)
T1 sequence (P41143 whole entry): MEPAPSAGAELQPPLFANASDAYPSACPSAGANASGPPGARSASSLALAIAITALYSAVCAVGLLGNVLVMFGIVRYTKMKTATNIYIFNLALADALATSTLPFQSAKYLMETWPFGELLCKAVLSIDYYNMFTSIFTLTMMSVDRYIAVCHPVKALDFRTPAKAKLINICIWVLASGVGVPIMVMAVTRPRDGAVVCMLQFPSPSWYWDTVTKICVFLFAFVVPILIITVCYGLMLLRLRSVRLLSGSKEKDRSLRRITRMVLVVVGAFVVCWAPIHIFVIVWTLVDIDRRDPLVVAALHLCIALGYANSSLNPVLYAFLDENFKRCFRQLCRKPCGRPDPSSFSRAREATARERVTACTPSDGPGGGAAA

human recombinant KOR = biological target: T2, human recombinant KOR (Homo sapiens, UniProt P41145); experiment: Calcium mobilization assay, CHO KOR cells with Gαqi5; assay type: cell-based
T2 construct: expressed in transfected cells; host or cells: CHO cells (gift from Prof. Girolamo Calo', Ferrara University)
T2 sequence (P41145 whole entry): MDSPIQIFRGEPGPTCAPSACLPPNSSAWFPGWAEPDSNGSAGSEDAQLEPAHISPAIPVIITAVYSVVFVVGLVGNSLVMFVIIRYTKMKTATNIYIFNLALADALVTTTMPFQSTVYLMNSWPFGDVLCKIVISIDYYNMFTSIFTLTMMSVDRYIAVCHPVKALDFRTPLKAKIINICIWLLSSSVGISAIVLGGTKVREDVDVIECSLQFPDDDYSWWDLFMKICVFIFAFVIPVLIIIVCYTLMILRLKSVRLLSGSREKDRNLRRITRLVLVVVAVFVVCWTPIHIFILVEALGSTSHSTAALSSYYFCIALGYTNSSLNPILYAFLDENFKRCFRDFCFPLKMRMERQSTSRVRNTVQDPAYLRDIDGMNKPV

human recombinant MOR = biological target: T3, human recombinant MOR (Homo sapiens, UniProt P35372); experiment: Calcium mobilization assay, CHO MOR cells with Gαqi5; assay type: cell-based; details: intrinsic activity: Emax of ligand / Emax of dermorphin
T3 construct: expressed in transfected cells; host or cells: CHO cells (gift from Prof. Girolamo Calo', Ferrara University)
T3 sequence (P35372 whole entry): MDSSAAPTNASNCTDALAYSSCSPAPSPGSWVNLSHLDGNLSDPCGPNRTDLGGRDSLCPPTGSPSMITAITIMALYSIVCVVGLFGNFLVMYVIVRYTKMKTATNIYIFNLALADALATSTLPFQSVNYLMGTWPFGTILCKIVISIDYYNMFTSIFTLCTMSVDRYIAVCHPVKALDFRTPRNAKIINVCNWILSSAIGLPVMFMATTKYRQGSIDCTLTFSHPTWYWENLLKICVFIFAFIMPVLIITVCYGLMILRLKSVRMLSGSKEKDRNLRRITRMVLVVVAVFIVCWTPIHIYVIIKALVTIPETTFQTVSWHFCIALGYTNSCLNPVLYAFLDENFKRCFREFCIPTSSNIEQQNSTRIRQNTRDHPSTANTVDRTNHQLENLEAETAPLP

Cc1cc(O)cc(C)c1C[C@H](N)C(=O)N[C@H](CCCNC(=N)N)C(=O)N[C@@H](Cc1ccccc1)C(=O)N[C@@H](CCCCN)C(N)=O [Dmt-DALDA, H-Dmt-D-Arg-Phe-Lys-NH2]
EC50 (hMOR [1]): 0.51 nM
Ki (hMOR [2]): 0.23 nM

CC[C@H](NC(=O)c1c(O)c(-c2ccccc2)nc2ccccc12)c1ccccc1 [Talnetant]
pA2 (Ca2+ mobilisation) (NK3 receptor [3]): 8.1
Ki (hNK3): 2 nM
pA2 (IP accumulation) (NK3 receptor [4]): 7.7

C[C@@H](NC(=O)[C@@H](N)Cc1ccc(O)cc1)C(=O)N[C@@H](Cc1ccccc1)C(=O)NCC(=O)N[C@@H](Cc1ccc(O)cc1)C(=O)N1CCC[C@H]1C(=O)N[C@@H](CO)C(N)=O [dermorphin, reference compound]
DOR EC50 ± SEM (nM) (human recombinant DOR; calcium mobilization, chimeric G protein): Inactive ^a
DOR α ± SEM (human recombinant DOR; intrinsic activity): Inactive ^a
KOR EC50 ± SEM (nM) (human recombinant KOR; calcium mobilization, CHO KOR Gαqi5, maximum tested concentration 10 µM, crc = concentration-response curve): inactive
KOR α ± SEM (human recombinant KOR; intrinsic activity: Emax of ligand / Emax of dynorphin A): inactive
MOR α ± SEM (human recombinant MOR): 1.00
